In patent US5002952A, “Readily absorbed pharmaceutical composition” (priority 1986, dated 1991):

System: L-1210 leukemia cells
Test: Antitumour activities (survival of BDF1 mice inoculated intraperitoneally with L-1210 leukemia cells, oral test drug)
Procedure: To BDF1 mice (male, 20-22 g), L-1210 leukemia cells were intraperitoneally inoculated in an amount of 1×10^6 cells/mouse. One day later and 4 days later, a test drug was orally administered. […] Therefore, in this test, Compound No. 3, and a 10 w/v% HCO60 solution were mixed, and pulverized in a wet system to obtain a liquid suspension, and the liquid suspension was administered to each mouse in an amount of 0.5 ml.
The activity was evaluated by a survival rate [T/C (%)]as compared with a control group to which a physiological saline was administered, and T/C values are shown in Table 2.

O=C(NC(=O)c1ccccc1[N+](=O)[O-])Nc1ccc(Oc2ncc(Br)cn2)c(Cl)c1 [Compound No. 3]
toxicity (T/C) (high dose region, composition wet pulverized with HCO60): less than 100% | antitumour activity (in words) (wet pulverized in the absence of HCO60, same dose): no substantial antitumour activity was observed | antitumour activity (in words) (wet pulverized together with the specific substance (HCO60)): adequate antitumour activity
